The values below come from PMC11897524 (Frontiers in Pharmacology, 2025).

One assay concerns the target STAT6 (Homo sapiens, UniProt P42226). Put plainly: Binding affinity to BET and STAT family members.
The target of another assay is STAT4 (Homo sapiens, UniProt Q14765). Put plainly: Binding affinity to BET and STAT family members.
Assay [1] relates to p-STAT3 and c-myc protein. Put plainly: Western blot on xenograft tumor tissues. Type of assay: in vivo, BALB/c nude mice. The conditions noted are these: xenograft tumor tissue. How it is done:
For the assessment of protein expression levels, Western blot analysis was conducted following a standardized protocol ([Zhou et al., 2022]). The CAKI-2 cells were initially rinsed with PBS to remove any residual culture medium. Subsequently, cells were lysed using a RIPA buffer supplemented with 1 mM phenylmethylsulfonyl fluoride (PMSF), and the lysate was incubated on ice for a duration of 1 h. The lysate was centrifuged at a speed of 13,000 rpm for 30 min at 4°C. Protein concentrations were quantified using a BCA protein assay kit (Beyotime, Shanghai, China), ensuring equal protein loading for each sample. Samples were then resolved by SDS-PAGE and transferred onto a polyvinylidene difluoride (PVDF) membrane. Subsequently, the membrane was blocked with 3% BSA in PBS at room temperature for 2 h and incubated overnight with the corresponding antibody at 4°C. […] The specific protein bands were visualized using ECL detection system (Tanon, Shanghai, China), and the band intensities were quantified using ImageJ software.
To further investigate the in vivo effects of BST-4, 6–8 weeks male BALB/c nude mice were obtained by Changzhou Cavens Experimental Animal Co., Ltd. (Changzhou, China). […] The tumor volume of mice was measured every 2 days and calculated according to the formula: (c × c × d)/2, where c and d represent the minimum diameter and maximum diameter, respectively. […]

For the next assay, the target named is STAT5b (Homo sapiens, UniProt P51692). Put plainly: Binding affinity to BET and STAT family members.
A further assay relates to c-myc mRNA and Ki67 mRNA. Put plainly: RT-qPCR on xenograft tumor tissues. Type of assay: in vivo, BALB/c nude mice. Particulars: xenograft tumor tissue. Here is the method:
(§1) This method was performed as previously reported. Briefly, the CAKI-2 cells were seeded into 6-well plates and cultured overnight, and treated with different concentrations of BST-4 for 24 h. RNA was extracted from cells and tissues using Trizol reagent and reverse transcribed using PrimeScriptRTase. cDNA was used for RT-qPCR SYBR Green assays (Takara). The relative levels of c-myc mRNA were calculated as [(c-myc mRNA in the treatment group)/(β-actin mRNA in the treatment group)]/[(c-myc mRNA in the control group)/(β-actin mRNA in the control group).
To further investigate the in vivo effects of BST-4, 6–8 weeks male BALB/c nude mice were obtained by Changzhou Cavens Experimental Animal Co., Ltd. (Changzhou, China). The mice were acclimatized to the laboratory environment for a week before the experiment. The housing conditions were maintained at a temperature of 22°C ± 2°C, a relative humidity of 50%–60%, and a 12-h light/dark cycle. 0.1 mL of CAKI-2cell suspension (1 × 10⁶ cells) was subcutaneously injected into the right flank of each mouse. […] The vehicle group was injected with a vehicle solution consisting of 5% DMSO and PBS. The tumor volume of mice was measured every 2 days and calculated according to the formula: (c × c × d)/2, where c and d represent the minimum diameter and maximum diameter, respectively. […]
On the technique in general: In qPCR the cycle at which signal appears reflects the starting amount.

Assay [2] deals with panel of 76 human kinases. Put plainly: SelectScreen kinase selectivity panel. Type of assay: biochemical. Here is the method:
The kinase selectivity profile of BST-4 was performed by the SelectScreen kinase profiling service (Thermo Fisher Scientific). Kinase selectivity assay was performed using Z′-LYTE ™ screening protocol kit. Briefly, the test compounds were screened in 1% DMSO (final). For 10-point titrations, perform a 3-fold dilution starting at a starting concentration of 50 µM. Then 2.5 µL 4× test compound, 2.4 µL kinase buffer, 5 µL 2× kinase mixture and 2.5 µL 4× ATP solution was added in black 384-well plate. After shaking for 30 s, the plates were incubated for 60 min at room temperature. Add developing reagent solution and shake the plate for 30 s, then incubate for 1 h at room temperature. The Fluorescence intensity per well was read using a fluorescence plate reader. SelectScreen® Kinase Profiling Service used XLfit from IDBS. The dose response curve was curve fit to model number 205 (sigmoidal dose-response model) and inhibition rates were calculated. 50% inhibition was used as a activity threshold. IC50 values were calculated based on curve fitting.

Another assay concerns CAKI-2 xenograft tumors. The experiment in a line: CAKI-2 cell-derived xenograft model. Type of assay: in vivo, BALB/c nude mice. Particulars: 10 mg/kg intraperitoneally every 12 h, nude mice. Here is the method: To further investigate the in vivo effects of BST-4, 6–8 weeks male BALB/c nude mice were obtained by Changzhou Cavens Experimental Animal Co., Ltd. (Changzhou, China). The mice were acclimatized to the laboratory environment for a week before the experiment. The housing conditions were maintained at a temperature of 22°C ± 2°C, a relative humidity of 50%–60%, and a 12-h light/dark cycle. 0.1 mL of CAKI-2cell suspension (1 × 10⁶ cells) was subcutaneously injected into the right flank of each mouse. […] The vehicle group was injected with a vehicle solution consisting of 5% DMSO and PBS. The tumor volume of mice was measured every 2 days and calculated according to the formula: (c × c × d)/2, where c and d represent the minimum diameter and maximum diameter, respectively. All animal experiments were performed and approved by the Ethics Committee of China Pharmaceutical University.

Another assay concerns the target BRD4 (Homo sapiens, UniProt O60885). Put plainly: AlphaScreen BRD4 binding inhibition assay. Set-up: purchased Abcam. In general terms: Bead proximity is the source of the signal in Alpha formats.
In another assay the test system is c-myc mRNA. Put plainly: RT-qPCR of c-myc mRNA in CAKI-2 cells. The assay is classed as cell-based, human. The conditions noted are these: 24 h, different concentrations. How it is done:
as §1

The next assay has as its target STAT2 (Homo sapiens, UniProt P52630). Put plainly: Binding affinity to BET and STAT family members.
Assay [3] concerns the target T1, STAT3 (Homo sapiens, UniProt P40763). The experiment in a line: STAT3 binding inhibition assay. Set-up: purchased Abcam.
Assay [4] addresses T1, STAT3. The experiment in a line: Microscale thermophoresis (MST) assay. Type of assay: binding. Set-up: purchased Abcam. Here is the method:
The MST experiments were performed using the Monolith NT.115 instrument. BRD4 and STAT3 proteins were labeled with the Lys labeling kit at the final concentration of 100 nM. The compounds, previously suspended in 100% DMSO, were diluted in a buffer containing 20 mM Tris·HCl (pH 7.5), 100 mM NaCl, and 3 mM DTT, achieving a final DMSO concentration of 5%. The compounds were gradient-diluted in 1:1 dilution and starting from 100 μM. The samples were loaded into MST-standard glass capillaries. All the measurements were performed in triplicate using automatically assigned 50% MST power and 20% LED power. Data analysis was performed using GraphPad Prism 7.0 software.
Background: MST reads how a fluorescent partner responds to local heating, with and without ligand.

T1 sequence (P40763 whole entry): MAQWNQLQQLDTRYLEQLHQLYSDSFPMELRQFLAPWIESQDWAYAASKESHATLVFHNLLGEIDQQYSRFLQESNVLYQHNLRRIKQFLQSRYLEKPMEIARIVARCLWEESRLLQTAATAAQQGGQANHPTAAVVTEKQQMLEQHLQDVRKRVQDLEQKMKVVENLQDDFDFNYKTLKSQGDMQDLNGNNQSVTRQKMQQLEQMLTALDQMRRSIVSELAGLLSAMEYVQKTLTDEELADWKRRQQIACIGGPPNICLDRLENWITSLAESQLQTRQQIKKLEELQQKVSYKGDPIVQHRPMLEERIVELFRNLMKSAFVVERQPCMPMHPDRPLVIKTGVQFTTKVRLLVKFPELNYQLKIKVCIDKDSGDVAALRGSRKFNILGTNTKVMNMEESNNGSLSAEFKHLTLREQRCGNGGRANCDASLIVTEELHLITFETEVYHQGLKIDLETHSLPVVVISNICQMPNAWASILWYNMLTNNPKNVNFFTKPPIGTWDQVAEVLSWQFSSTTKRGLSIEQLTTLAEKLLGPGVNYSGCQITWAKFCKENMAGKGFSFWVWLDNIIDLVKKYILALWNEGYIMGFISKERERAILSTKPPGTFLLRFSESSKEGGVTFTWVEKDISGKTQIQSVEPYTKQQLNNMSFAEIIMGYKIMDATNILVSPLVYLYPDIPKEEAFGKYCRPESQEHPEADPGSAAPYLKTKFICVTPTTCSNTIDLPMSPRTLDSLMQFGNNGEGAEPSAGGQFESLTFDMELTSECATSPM
STAT2, sequence (P52630 whole entry): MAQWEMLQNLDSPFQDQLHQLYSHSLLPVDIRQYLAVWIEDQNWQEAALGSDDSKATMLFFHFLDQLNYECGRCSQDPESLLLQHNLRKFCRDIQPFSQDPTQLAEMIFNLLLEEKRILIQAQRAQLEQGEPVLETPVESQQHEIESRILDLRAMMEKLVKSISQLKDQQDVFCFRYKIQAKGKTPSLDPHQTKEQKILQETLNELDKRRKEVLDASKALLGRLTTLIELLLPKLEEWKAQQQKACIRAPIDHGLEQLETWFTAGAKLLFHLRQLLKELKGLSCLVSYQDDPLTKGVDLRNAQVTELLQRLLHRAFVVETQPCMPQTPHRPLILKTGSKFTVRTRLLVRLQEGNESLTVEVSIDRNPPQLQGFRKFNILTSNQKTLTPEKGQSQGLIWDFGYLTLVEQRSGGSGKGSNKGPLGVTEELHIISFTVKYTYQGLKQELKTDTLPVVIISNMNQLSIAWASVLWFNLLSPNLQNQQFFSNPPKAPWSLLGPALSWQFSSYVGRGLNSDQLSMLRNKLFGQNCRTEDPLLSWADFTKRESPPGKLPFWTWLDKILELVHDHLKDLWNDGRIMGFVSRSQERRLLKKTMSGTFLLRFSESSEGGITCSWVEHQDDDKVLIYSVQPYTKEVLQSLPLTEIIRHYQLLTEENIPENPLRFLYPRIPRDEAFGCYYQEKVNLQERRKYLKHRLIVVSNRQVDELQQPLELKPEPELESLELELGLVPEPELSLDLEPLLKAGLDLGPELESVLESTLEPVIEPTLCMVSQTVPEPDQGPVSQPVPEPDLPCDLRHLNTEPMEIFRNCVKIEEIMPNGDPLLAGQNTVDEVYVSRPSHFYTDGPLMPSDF
STAT4, sequence (Q14765 whole entry): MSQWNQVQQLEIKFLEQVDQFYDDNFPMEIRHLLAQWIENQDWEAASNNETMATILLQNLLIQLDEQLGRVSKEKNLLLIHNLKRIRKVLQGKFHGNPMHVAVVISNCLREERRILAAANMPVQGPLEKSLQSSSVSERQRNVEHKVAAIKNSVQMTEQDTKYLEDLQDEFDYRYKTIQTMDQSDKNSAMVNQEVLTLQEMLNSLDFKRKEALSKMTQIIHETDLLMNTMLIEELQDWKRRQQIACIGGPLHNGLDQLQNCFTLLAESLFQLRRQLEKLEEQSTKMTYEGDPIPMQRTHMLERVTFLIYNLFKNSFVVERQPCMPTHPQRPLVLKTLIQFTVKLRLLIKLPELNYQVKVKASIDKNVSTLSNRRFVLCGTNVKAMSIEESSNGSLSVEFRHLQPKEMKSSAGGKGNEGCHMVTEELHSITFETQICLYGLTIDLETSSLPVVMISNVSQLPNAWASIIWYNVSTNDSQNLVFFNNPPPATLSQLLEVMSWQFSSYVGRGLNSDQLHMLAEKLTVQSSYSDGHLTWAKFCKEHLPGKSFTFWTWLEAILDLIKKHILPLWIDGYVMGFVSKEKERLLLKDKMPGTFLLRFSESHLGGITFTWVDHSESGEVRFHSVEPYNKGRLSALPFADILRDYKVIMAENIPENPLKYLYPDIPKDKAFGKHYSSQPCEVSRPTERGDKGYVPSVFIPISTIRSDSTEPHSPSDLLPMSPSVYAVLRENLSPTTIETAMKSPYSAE
STAT5b, sequence (P51692 whole entry): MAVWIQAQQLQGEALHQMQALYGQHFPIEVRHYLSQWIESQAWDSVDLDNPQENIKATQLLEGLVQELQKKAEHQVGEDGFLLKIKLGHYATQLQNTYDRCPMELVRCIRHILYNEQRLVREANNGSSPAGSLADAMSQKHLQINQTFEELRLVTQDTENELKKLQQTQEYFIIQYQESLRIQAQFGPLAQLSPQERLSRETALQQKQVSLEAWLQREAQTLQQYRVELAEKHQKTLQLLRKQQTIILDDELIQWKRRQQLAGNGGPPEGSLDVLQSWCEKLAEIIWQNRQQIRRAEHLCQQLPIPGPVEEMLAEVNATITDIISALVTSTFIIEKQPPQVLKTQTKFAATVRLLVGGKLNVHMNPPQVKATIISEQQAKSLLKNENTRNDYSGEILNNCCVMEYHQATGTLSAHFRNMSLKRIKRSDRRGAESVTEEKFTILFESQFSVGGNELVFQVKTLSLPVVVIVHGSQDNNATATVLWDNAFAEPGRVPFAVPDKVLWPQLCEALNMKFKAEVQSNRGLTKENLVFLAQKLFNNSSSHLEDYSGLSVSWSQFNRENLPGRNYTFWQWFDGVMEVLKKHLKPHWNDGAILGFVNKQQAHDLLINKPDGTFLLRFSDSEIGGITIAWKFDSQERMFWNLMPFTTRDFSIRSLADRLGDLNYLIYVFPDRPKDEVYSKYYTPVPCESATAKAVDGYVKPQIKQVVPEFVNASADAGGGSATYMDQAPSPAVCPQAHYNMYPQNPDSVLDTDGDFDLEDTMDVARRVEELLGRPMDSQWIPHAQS
STAT6, sequence (P42226 whole entry): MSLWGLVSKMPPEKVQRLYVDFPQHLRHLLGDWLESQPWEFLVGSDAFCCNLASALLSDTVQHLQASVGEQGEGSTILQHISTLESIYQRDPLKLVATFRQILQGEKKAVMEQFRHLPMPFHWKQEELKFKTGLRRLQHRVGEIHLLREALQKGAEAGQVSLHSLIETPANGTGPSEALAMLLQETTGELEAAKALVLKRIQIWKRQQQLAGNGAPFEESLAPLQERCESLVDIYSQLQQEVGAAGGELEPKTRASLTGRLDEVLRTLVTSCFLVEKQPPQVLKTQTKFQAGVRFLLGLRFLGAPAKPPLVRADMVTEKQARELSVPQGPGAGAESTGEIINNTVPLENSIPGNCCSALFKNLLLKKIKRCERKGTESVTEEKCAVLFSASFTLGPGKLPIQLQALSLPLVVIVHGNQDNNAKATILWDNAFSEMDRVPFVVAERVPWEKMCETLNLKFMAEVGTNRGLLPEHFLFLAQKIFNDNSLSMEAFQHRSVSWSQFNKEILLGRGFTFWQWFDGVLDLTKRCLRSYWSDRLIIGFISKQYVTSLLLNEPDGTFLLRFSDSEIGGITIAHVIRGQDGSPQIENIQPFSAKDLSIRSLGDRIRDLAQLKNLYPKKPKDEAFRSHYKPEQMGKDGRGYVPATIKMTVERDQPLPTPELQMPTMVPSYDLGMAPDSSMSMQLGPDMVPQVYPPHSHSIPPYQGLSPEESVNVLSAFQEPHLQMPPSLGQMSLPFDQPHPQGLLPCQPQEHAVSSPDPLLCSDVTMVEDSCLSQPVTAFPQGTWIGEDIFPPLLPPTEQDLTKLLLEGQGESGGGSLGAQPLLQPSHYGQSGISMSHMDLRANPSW
Protocol for BRD4: The inhibitory effect was measured through the previously described the amplified luminescent proximity homogeneous assay (AlphaScreen) ([Feng et al., 2018]). First, the compounds were diluted twofold to different concentrations (64, 32, 16, 8, 4, 2, 1, 0.5, 0.25, 0.125, 0.0625 nM) and each was incubated with BRD4 protein at a concentration of 12.5 nM for 15 min at room temperature. Biotin-labeled peptide (SGRG-K(Ac)-GG-K(Ac)-GLG-K(Ac)-GGA-K (Ac)-RHRKVGG-K-biotin) was added for 10 min, followed by streptavidin donor beads and AlphaScreen nickel chelate acceptor and incubation for 1h. All components were incubated in a total volume of 20 μL assay buffer containing 20 mM HEPES, pH 7.4, 0.1% bovine serum albumin (BSA, w/v), 0.01% Triton X-100, and 1 mM DTT. Finally, counts were measured by EnVision (Perkin Elmer, Hopkinton, MA) and analyzed by Graphpad Prism 7.0 software.

Regarding `CCS(=O)(=O)Cc1cnc(Oc2c(F)cc(F)cc2OCCCCOc2ccc(/C=C/c3cc(OC)cc(OC)c3)cc2)c(-c2cc(C)c3c(=O)[nH]ccn23)c1` [BST-4], the Kd was more than 10000 nM on STAT6; more than 10000 nM at STAT4; more than 10000 nM at STAT5b; more than 10000 nM at STAT2; 4.28 ± 0.59 nM on STAT3 [4] (MST). In addition, the “c-myc protein expression level in tumor tissues” value in assay [1] is “significantly downregulated”. Also, in assay [1], the “p-STAT3 protein expression level in tumor tissues” value is “significantly downregulated”. For the same compound, in the assay on c-myc mRNA and Ki67 mRNA, the “Ki67 mRNA expression level in tumor tissues in vivo” value is given as “downregulated”. For the same compound, the “c-myc mRNA expression level in tumor tissues in vivo” value in the assay on c-myc mRNA and Ki67 mRNA was “downregulated”. In [2] (1 µM), the “inhibition of all 76 kinases at 1 µM” value is “less than 10%”. Also, the IC50 was more than 10000 nM in [2] (read-out: IC50 on panel of 76 human kinases, all kinases of the panel); 2.45 ± 0.11 nM at BRD4; 8.07 ± 0.51 nM at STAT3 [3]. Moreover, in the assay with CAKI-2 xenograft tumors, the “tumor growth (tumor volume) in CAKI-2 xenograft” value was “significantly inhibited tumor growth”. Also, at BRD4 (IC50 ratio vs RVX-208), the “BRD4 inhibition relative to RVX-208” value is listed as “about 16 fold”. In addition, the “expression of c-myc mRNA in CAKI-2 cells” value in the assay with c-myc mRNA is reported as “strongly dose-dependent downregulated”. For the same compound, the “STAT3 inhibition relative to CJ-1383” value on STAT3 [3] (IC50 ratio vs CJ-1383) was “about 115 fold”. The “STAT3 binding affinity relative to CJ-1383” value at STAT3 [4] (Kd ratio vs CJ-1383, MST) was 211 fold.

For orientation: Kd means the equilibrium constant for the complex coming apart. A low value points to higher affinity. The IC50 is the concentration that inhibits the measured activity by half.
